The values below come from patent publication US11578055B2, “Triazacyclododecansulfonamide (“TCD”)-based protein secretion inhibitors” (KEZAR LIFE SCIENCES, priority 2018, dated 2023).

The test concerns B16F10 cells. Kind of test: Efficacy study: tumor growth and body weight in a B16F10 model. As to conditions: B16F10 refractory model, once-a-week dosing, compared to anti-PD-1 therapy. Type of test: in vivo, C57BL/6 mice. Here is the method: Efficacy Study: Effect of Compound A87 on Tumor Growth and Body Weight in a B16F10 Model Comparted to Anti-PD-1 Therapy.
Female C57BL/6 mice (7-8 week old) were injected in the flank subcutaneously with 5×10^6 B16F10 cells in 0.1 ml on Day 0. On Day 3, compound A87 formulated in 10% ETOH/10% Kolliphor EL was administered IV 30 mg/kg QW, IV 10 mg/kg D1D2, or IP 15 mg/kg QOD. Anti-PD1 antibody treatment (RMP1-14 from Bioxcell, 200 μg) was administered i.p. on a QOD×3 dose schedule. Tumor size was monitored with a digital caliper (Fowler) every 2-3 d until reaching a size of 1.5-2.0 cm and expressed as volume (length×width×height). B16F10, a melanoma line, was obtained from ATCC. C57/BL6 mice were purchased from Charles rivers laboratories.

For the compound `C[C@H]1CN(S(=O)(=O)c2ccc(N(C)C)cc2)CCCN(CC2CCCCC2)CCCN(S(=O)(=O)N2CCc3cc(Cl)ccc3C2)C1` [A87], the tumor growth inhibition entry is recorded as “superior efficacy”.
